pEC50, pIC50: −log10 of the molar value. Where two headings read alike, the source gives them in different places.
Legend:
[1] = tested on: pH2AX induction in HCT116 ATM-/- multicellular tumour spheroids; assay: Prodrug Radiation Sensitization in Multicellular Tumour Spheroids, inhibition of pH2AX induction following radiation; assay type: cell-based; details: Homo sapiens, HCT-116, 20 Gy
Protocol: Prodrug compounds were assayed to determine their potency in 3D multicellular spheroids in media maintained under 20% vs 5% oxygen. Multicellular tumour spheroids were grown to approximately 0.5 mm in diameter and irradiated with 20 Gy in combination with inhibitor test compounds to determine their potency using HCT 116 and FaDu cell lines. Experiments were carried out in 96 well plates containing 0.7 mls of MEM media containing 10% FBS and 10 mM glucose under 5% CO2 at 37° C. Following dilution of compounds 1:1000 from DMSO stocks, compounds were serially diluted from 10 μM down to 3.5 nM and 5-10 spheroids added. 96 well plates were constantly stirred to avoid spheroids settling during the course of the experiment. Endpoints were pDNA-PK (ser 2056) or pH2AX (ser 139) status in spheroid cryosections taken 1 or 2 hours following radiation and fixed immediately in formalin. Using tumour cell lines deficient in ATM improved the assay signal to noise and gH2AX readout. Using this assay prodrug activity could be compared in the more oxygenated outer spheroid layers versus less oxygenated hypoxic central cell layers.

[2] = target: T1, DNA-PK phosphorylation at Serine 2056 (Homo sapiens, UniProt P78527); assay: Cellular Assay for Inhibition of DNA-PK Phosphorylation at Serine 2056 in FaDu cells (sandwich ELISA, neocarzinostatin); assay type: cell-based; details: pSer2056 DNA-PK, Table 3
T1 construct: FaDu cells were purchased from ATCC; host or cells: FaDu
How it was run: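 pSer2056 and total DNA-PK were measured by sandwich ELISA in BCA-normalised FaDu lysates. Cells had 1 h compound exposure (0.3% DMSO), then 2 h with 1 μg/mL final neocarzinostatin. IC50 was fitted (variable slope) to % inhibition scaled against NCS-stimulated and DMSO-only controls.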

FaDu cell line = assay: Prodrug Activation in Hypoxic Stirred Tumour Cell Suspensions; details: 10 μM, 4 hours
Protocol: Prodrug compounds were assayed to determine their stability and rate of activation in stirred cell suspensions under 0.2 vs 5% oxygen. Compounds were diluted 1:1000 from DMSO stocks to 10 μM final concentration in tumour cell suspensions (1% by cell volume) in MEM media containing 10% FBS, 10 mM glucose & 3.7 g/L sodium bicarbonate. Cell lines assayed included A253, A549, Detroit562, FaDu, HCT116, HEP G2, HT29, SCC25, SCC9, SiHa & TC32. Compounds and cells were then incubated for 4 hours under constant mixing at 37° C. under 5% CO2 and either 0.2 or 5% O2. Following the incubation period cellular activation of the compounds was assayed via MeOH extraction and HPLC quantification.

[3] = 5% O2, inner layers, read-out: Prodrug 5% O2 Inner layers EC50
[4] = 5% O2, outer layers, read-out: Prodrug 5% O2 Outer layers EC50
[5] = 20% O2, outer layers, read-out: Prodrug 20% O2 Outer layers EC50

pIC50 [2]	Fraction of prodrug converted to active form, Hypoxic 0.2% O2 (FaDu cell line)	Fraction of prodrug converted to active form, Oxic 5% O2 (FaDu cell line)	Structure (SMILES)	pEC50 [1, 3]	pEC50 [1, 4]	pEC50 [1, 5]
5.00 to 6.00	B (B is 0.05 to 0.15)	B (B is 0.05 to 0.15)	CN1CCN(c2cnc(N[C@H]3CC[C@@H](Oc4nc(N5CCOCC5)cc5ncc(N(Cc6cnn(C)c6[N+](=O)[O-])S(C)(=O)=O)cc45)CC3)nc2)CC1 [LFA2072, N-[(1-methyl-5-nitro-pyrazol-4-yl)methyl]-N-[5-[4-[[5-(4-methylpiperazin-1-yl)pyrimidin-2-yl]amino]cyclohexoxy]-7-morpholino-1,6-naphthyridin-3-yl]methanesulfonamide]	6.30 to 8.00	6.30 to 8.00	5.00 to 6.00
4.52 to 5.00	D (D is 0 to 0.02)	D (D is 0 to 0.02)	CC(c1cnc([N+](=O)[O-])n1C)N(c1cnc2cc(N3CCOCC3)nc(OC3CCC(Nc4ncc(N5CCN(CC(F)(F)F)CC5)cn4)CC3)c2c1)S(C)(=O)=O (stereo not drawn) [LFA2046, N-[1-(3-methyl-2-nitro-imidazol-4-yl)ethyl]-N-[7-morpholino-5-[4-[[5-[4-(2,2,2-trifluoroethyl)piperazin-1-yl]pyrimidin-2-yl]amino]cyclohexoxy]-1,6-naphthyridin-3-yl]methanesulfonamide]	6.00 to 6.30	5.00 to 6.00	5.00 to 6.00
4.52 to 5.00	B (B is 0.05 to 0.15)	D (D is 0 to 0.02)	CC(c1cnc([N+](=O)[O-])n1C)N(c1cnc2cc(N3CCOCC3)nc(O[C@H]3CC[C@@H](Nc4ncc(OCCN(C)C)cn4)CC3)c2c1)S(C)(=O)=O (stereo partly drawn) [LFA2061, N-[5-[4-[[5-[2-(dimethylamino)ethoxy]pyrimidin-2-yl]amino]cyclohexoxy]-7-morpholino-1,6-naphthyridin-3-yl]-N-[1-(3-methyl-2-nitro-imidazol-4-yl)ethyl]methanesulfonamide]	6.00 to 6.30	5.00 to 6.00	4.00 to 5.00
5.00 to 6.00	C (C is 0.02 to 0.05)	D (D is 0 to 0.02)	Cn1c(CN(c2cnc3cc(N4CCOCC4)nc(OC4CCC(Nc5ncc(N6CCN(CCF)CC6)cn5)CC4)c3c2)S(C)(=O)=O)cnc1[N+](=O)[O-] (stereo not drawn) [LFA2044, N-[5-[4-[[5-[4-(2-fluoroethyl)piperazin-1-yl]pyrimidin-2-yl]amino]cyclohexoxy]-7-morpholino-1,6-naphthyridin-3-yl]-N-[(3-methyl-2-nitro-imidazol-4-yl)methyl]methanesulfonamide]	6.30 to 8.00	5.00 to 6.00	5.00 to 6.00
4.52 to 5.00	B (B is 0.05 to 0.15)	D (D is 0 to 0.02)	CC(c1cnc([N+](=O)[O-])n1C)N(c1cnc2cc(N3CCOCC3)nc(OC3CCC(Nc4ncc(N5CCN(CC(F)F)CC5)cn4)CC3)c2c1)S(C)(=O)=O (stereo not drawn) [LFA2047, N-[5-[4-[[5-[4-(2,2-difluoroethyl)piperazin-1-yl]pyrimidin-2-yl]amino]cyclohexoxy]-7-morpholino-1,6-naphthyridin-3-yl]-N-[1-(3-methyl-2-nitro-imidazol-4-yl)ethyl]methanesulfonamide]	6.30 to 8.00	5.00 to 6.00	5.00 to 6.00

The remaining lines, values behind:

Structure (SMILES)	pIC50 [2]	Fraction of prodrug converted to active form, Hypoxic 0.2% O2 (FaDu cell line)	Fraction of prodrug converted to active form, Oxic 5% O2 (FaDu cell line)	pEC50 [1, 3]	pEC50 [1, 4]	pEC50 [1, 5]
CC(Oc1cnc2cc(N3CCOCC3)nc(O[C@H]3CC[C@@H](N(C)c4ncccn4)CC3)c2c1)c1cnc([N+](=O)[O-])n1C (stereo partly drawn) [LFA2063, N-methyl-N-[4-[[3-[1-(3-methyl-2-nitro-imidazol-4-yl)ethoxy]-7-morpholino-1,6-naphthyridin-5-yl]oxy]cyclohexyl]pyrimidin-2-amine]	4.52 to 5.00	A (A is 0.15 to 1)	B (B is 0.05 to 0.15)	6.30 to 8.00	5.00 to 6.00	5.00 to 6.00
CC(Oc1cnc2cc(N3CCOCC3)nc(O[C@H]3CC[C@@H](Nc4ccccn4)CC3)c2c1)c1cnc([N+](=O)[O-])n1C (stereo partly drawn) [LFA2084, N-[4-[[3-[1-(3-methyl-2-nitro-imidazol-4-yl)ethoxy]-7-morpholino-1,6-naphthyridin-5-yl]oxy]cyclohexyl]pyridin-2-amine]	4.52 to 5.00	A (A is 0.15 to 1)	C (C is 0.02 to 0.05)	6.30 to 8.00	5.00 to 6.00	4.00 to 5.00
Cn1c(CN(c2cnc3cc(N4CCOCC4)nc(O[C@H]4CC[C@@H](Nc5cnc(C#N)cn5)CC4)c3c2)S(C)(=O)=O)cnc1[N+](=O)[O-] [LFA2103, N-[5-[4-[(5-cyanopyrazin-2-yl)amino]cyclohexoxy]-7-morpholino-1,6-naphthyridin-3-yl]-N-[(3-methyl-2-nitro-imidazol-4-yl)methyl]methanesulfonamide]	5.00 to 6.00	B (B is 0.05 to 0.15)	D (D is 0 to 0.02)	6.30 to 8.00	5.00 to 6.00	4.00 to 5.00
Cn1c(CN(c2cnc3cc(N4CCOCC4)nc(O[C@H]4CC[C@@H](Nc5nccnc5C#N)CC4)c3c2)S(C)(=O)=O)cnc1[N+](=O)[O-] [LFA2102, N-[5-[4-[(3-cyanopyrazin-2-yl)amino]cyclohexoxy]-7-morpholino-1,6-naphthyridin-3-yl]-N-[(3-methyl-2-nitro-imidazol-4-yl)methyl]methanesulfonamide]	4.52 to 5.00	C (C is 0.02 to 0.05)	D (D is 0 to 0.02)	6.30 to 8.00	5.00 to 6.00	5.00 to 6.00
CC(c1cnn(C)c1[N+](=O)[O-])N(c1cnc2cc(N3CCOCC3)nc(O[C@H]3CC[C@@H](Nc4ncc(OCCN(C)C)cn4)CC3)c2c1)S(C)(=O)=O (stereo partly drawn) [LFA2073, N-[5-[4-[[5-[2-(dimethylamino)ethoxy]pyrimidin-2-yl]amino]cyclohexoxy]-7-morpholino-1,6-naphthyridin-3-yl]-N-[1-(1-methyl-5-nitro-pyrazol-4-yl)ethyl]methanesulfonamide]	5.00 to 6.00	B (B is 0.05 to 0.15)	C (C is 0.02 to 0.05)	6.30 to 8.00	5.00 to 6.00	5.00 to 6.00
Cn1c(COc2cnc3cc(N4CCOCC4)nc(O[C@H]4CC[C@@H](N(C)c5ncccn5)CC4)c3c2)cnc1[N+](=O)[O-] [LFA2071, N-methyl-N-[4-[[3-[(3-methyl-2-nitro-imidazol-4-yl)methoxy]-7-morpholino-1,6-naphthyridin-5-yl]oxy]cyclohexyl]pyrimidin-2-amine]	4.52 to 5.00	A (A is 0.15 to 1)	B (B is 0.05 to 0.15)	6.30 to 8.00	5.00 to 6.00	5.00 to 6.00
Cn1c(COc2cnc3cc(N4CCOCC4)nc(O[C@H]4CC[C@@H](Nc5ccccn5)CC4)c3c2)cnc1[N+](=O)[O-] [LFA2083, N-[4-[[3-[(3-methyl-2-nitro-imidazol-4-yl)methoxy]-7-morpholino-1,6-naphthyridin-5-yl]oxy]cyclohexyl]pyridin-2-amine]	4.52 to 5.00	A (A is 0.15 to 1)	C (C is 0.02 to 0.05)	6.30 to 8.00	5.00 to 6.00	5.00 to 6.00
CC(c1cnn(C)c1[N+](=O)[O-])N(c1cnc2cc(N3CCOCC3)nc(O[C@H]3CC[C@@H](Nc4ncc(OC5CCN(C)C5)cn4)CC3)c2c1)S(C)(=O)=O (stereo partly drawn) [LFA2064, N-[1-(1-methyl-5-nitro-pyrazol-4-yl)ethyl]-N-[5-[4-[[5-(1-methylpyrrolidin-3-yl)oxypyrimidin-2-yl]amino]cyclohexoxy]-7-morpholino-1,6-naphthyridin-3-yl]methanesulfonamide]	5.00 to 6.00	B (B is 0.05 to 0.15)	C (C is 0.02 to 0.05)	6.30 to 8.00	5.00 to 6.00	5.00 to 6.00
CS(=O)(=O)N(Cc1cnc([N+](=O)[O-])n1C1CC1)c1cnc2cc(N3CCOCC3)nc(O[C@H]3CC[C@@H](Nc4ncccn4)CC3)c2c1 [LFA2058, N-[(3-cyclopropyl-2-nitro-imidazol-4-yl)methyl]-N-[7-morpholino-5-[4-(pyrimidin-2-ylamino)cyclohexoxy]-1,6-naphthyridin-3-yl]methanesulfonamide]	5.00 to 6.00	B (B is 0.05 to 0.15)	C (C is 0.02 to 0.05)	6.30 to 8.00	6.30 to 8.00	5.00 to 6.00

Reference: US20240239790A1, “7-Morpholino-1,6-Naphthyridin-5-yl Derivatives and Pharmaceutical Compositions Thereof Useful as DNA-PK Inhibitor” (adMare Therapeutics Society, priority 2021, published 2024)
